Data on ten molecules can be found in ChEMBL document CHEMBL1201862, “PubChem BioAssay data set” (2004).

The structures appear in SMILES notation.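 Briefly, cells in 96-well plates were exposed to five compound concentrations for 48 h, and endpoints were estimated by linear interpolation. GI50 marks 50% less growth.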 Active and inactive are the calls of the source. No stated cut-off is given here; in the data, active = GI50 up to about 1.1 µM and inactive = higher.

Among the test systems are RXF 393; SNB-75; KM12; A498; DU-145; HCT-15; HOP-92; SF-539; MDA-N; UO-31; MCF7; SK-MEL-28; K562; MDA-MB-435; IGROV-1; NCI-H522; SNB-19; NCI/ADR-RES; T47D; MOLT-4.
What all share (test): inhibition of tumour cell growth, NCI panel, 48 h

Regarding `CC1OC(OC2C(O)C(O)C(O)C(O)C2O)C(N)CC1NC(=N)C(=O)O` (stereo not given), the GI50 is > 100 µM (inactive) in the assay on RXF 393; > 100 µM (inactive) with SNB-75; > 100 µM (inactive) with KM12; > 100 µM (inactive) in the assay with A498; > 100 µM (inactive) in the assay on DU-145; above 100 µM in the assay on HCT-15. Besides, the GI50 in the assay on HOP-92, with SF-539, in the assay on MDA-N, in the assay with UO-31, in the assay with MCF7 and in the assay with SK-MEL-28 was > 100 µM (inactive) in each case. The GI50 in the assay on K562, in the assay on MDA-MB-435, in the assay with IGROV-1, in the assay on NCI-H522, with SNB-19 and in the assay with NCI/ADR-RES was > 100 µM (inactive) each time. In addition, the GI50 in the assay with T47D and with MOLT-4 was > 100 µM (inactive) throughout.

Turning to `N=C(N)/N=C(\N)Nc1ccc(C(=O)O)cc1`, the GI50 with RXF 393 is > 100 µM (inactive); with SNB-75 it was > 100 µM (inactive); in the assay with KM12, > 100 µM (inactive); in the assay with A498, > 100 µM (inactive); in the assay with DU-145 it was > 100 µM (inactive); in the assay with HCT-15, above 100 µM. Further, the GI50 in the assay on HOP-92, in the assay with SF-539, with MDA-N, in the assay with UO-31, with MCF7 and in the assay with SK-MEL-28 was > 100 µM (inactive) each time. The GI50 with K562, in the assay with MDA-MB-435, with IGROV-1, in the assay on NCI-H522, in the assay with SNB-19 and in the assay with NCI/ADR-RES was > 100 µM (inactive) in each case. Moreover, the GI50 with T47D and in the assay with MOLT-4 was > 100 µM (inactive) throughout.

For `COc1cc(/C=N/NC(=O)c2ccc(NC(C)=O)cc2OC)ccc1O`, the GI50 with RXF 393 was 39.3 µM (inactive); in the assay with SNB-75, 26.7 µM (inactive); with KM12 it was > 100 µM (inactive); in the assay on A498, 86.3 µM (inactive); with DU-145, 69.5 µM (inactive); in the assay with HCT-15 it was 76.6 µM. The GI50 in the assay with HOP-92 was 22.6 µM (inactive); in the assay on SF-539 it was 39.2 µM (inactive); in the assay on MDA-N, > 100 µM (inactive); in the assay with UO-31, > 100 µM (inactive); with MCF7, > 100 µM (inactive); in the assay on SK-MEL-28, > 100 µM (inactive). Moreover, the GI50 is > 100 µM (inactive) in the assay on K562; > 100 µM (inactive) with MDA-MB-435; 64 µM (inactive) in the assay with IGROV-1; 96.2 µM (inactive) in the assay on NCI-H522; 74.3 µM (inactive) in the assay on SNB-19; > 100 µM (inactive) in the assay on NCI/ADR-RES. The GI50 with T47D was 84.5 µM (inactive); in the assay with MOLT-4, > 100 µM (inactive).

Consider `CC(C)=CC[C@]12CCN(C)[C@H]1N(S(=O)(=O)c1ccccc1)c1ccccc12`, for which the GI50 with RXF 393 is > 38.3 µM (inactive); in the assay with SNB-75, 17.3 µM (inactive); in the assay on KM12, 26.1 µM (inactive); in the assay on A498, > 100 µM (inactive); in the assay on DU-145 it was > 30.8 µM (inactive); with HCT-15 it was above 47.2 µM. Also, the GI50 is 3.38 µM (inactive) in the assay with HOP-92; 58.9 µM (inactive) in the assay with SF-539; 48.2 µM (inactive) with MDA-N; > 22.5 µM (inactive) in the assay on UO-31; > 42.8 µM (inactive) in the assay with MCF7; > 64.6 µM (inactive) in the assay with SK-MEL-28. The GI50 in the assay on K562 was > 43.2 µM (inactive); with MDA-MB-435, > 44.7 µM (inactive); with IGROV-1, > 56.9 µM (inactive); in the assay on NCI-H522, 15.8 µM (inactive); in the assay with SNB-19, > 20.3 µM (inactive); with NCI/ADR-RES, > 82.8 µM (inactive). Also, the GI50 in the assay with T47D was 9.73 µM (inactive); in the assay on MOLT-4 it was > 43.4 µM (inactive).

`CCC1(C)NC(c2cnccn2)=NN1c1ccc(Cl)cc1` (stereo not given): the GI50 with RXF 393 is 41.7 µM (inactive); in the assay with SNB-75, 19.3 µM (inactive); in the assay with KM12, > 100 µM (inactive); in the assay on A498, > 100 µM (inactive); in the assay on DU-145, 65.2 µM (inactive); in the assay on HCT-15, above 100 µM. The GI50 in the assay with HOP-92 is > 100 µM (inactive); in the assay on SF-539, > 100 µM (inactive); in the assay on MDA-N it was > 100 µM (inactive); with UO-31, > 100 µM (inactive); with MCF7 it was 45.4 µM (inactive); in the assay on SK-MEL-28 it was > 100 µM (inactive). In addition, the GI50 with K562 is 39.3 µM (inactive); with MDA-MB-435, > 100 µM (inactive); in the assay on IGROV-1, > 100 µM (inactive); in the assay with NCI-H522 it was > 100 µM (inactive); in the assay on SNB-19, > 100 µM (inactive); in the assay on NCI/ADR-RES, > 100 µM (inactive). Further, the values for the GI50 with T47D and with MOLT-4 were 15.5 µM (inactive) and 32.7 µM (inactive), respectively.

On to `Cc1nc2n(c1/C=C1/C(=O)Nc3ccccc31)CCS2`, for which the GI50 with RXF 393 was 18.7 µM (inactive); in the assay on SNB-75 it was 17.3 µM (inactive); with KM12, 31.1 µM (inactive); in the assay on A498, 31.2 µM (inactive); with DU-145, 53.8 µM (inactive); with HCT-15, 34.2 µM. Further, the GI50 was > 100 µM (inactive) in the assay with HOP-92; 41.5 µM (inactive) in the assay on SF-539; 17.6 µM (inactive) with MDA-N; 27.5 µM (inactive) with UO-31; 24.3 µM (inactive) with MCF7; 78 µM (inactive) in the assay with SK-MEL-28. For the same molecule, the GI50 in the assay on K562 is 33.3 µM (inactive); in the assay with MDA-MB-435, 14.8 µM (inactive); in the assay with IGROV-1, 91 µM (inactive); in the assay with NCI-H522, 34.5 µM (inactive); in the assay with SNB-19, > 100 µM (inactive); with NCI/ADR-RES, 33.8 µM (inactive). Besides, the values for the GI50 in the assay on T47D and in the assay on MOLT-4 were 25.8 µM (inactive) and 30.9 µM (inactive), respectively.

For the molecule `OCC1CCCCN1Cc1nc2cc(Cl)ccc2[nH]1` (stereo not given), the GI50 is 65 µM (inactive) in the assay with RXF 393; > 100 µM (inactive) in the assay on SNB-75; > 100 µM (inactive) with KM12; > 100 µM (inactive) in the assay with A498; > 100 µM (inactive) in the assay with DU-145; above 100 µM with HCT-15. In addition, the GI50 with HOP-92, in the assay on SF-539, with MDA-N, in the assay on UO-31, with MCF7 and in the assay with SK-MEL-28 was > 100 µM (inactive) each time. In addition, the GI50 with K562, with MDA-MB-435, in the assay on IGROV-1, in the assay on NCI-H522, in the assay with SNB-19 and with NCI/ADR-RES was > 100 µM (inactive) throughout. Further, the GI50 in the assay with T47D and in the assay on MOLT-4 was > 100 µM (inactive) each time.

Turning to `COC(=O)c1cc(=O)n(-c2ccc3nn(C)nc3c2)cc1C(=O)OC`, the GI50 is > 100 µM (inactive) in the assay on RXF 393; > 100 µM (inactive) with SNB-75; > 100 µM (inactive) in the assay on KM12; > 100 µM (inactive) with A498; > 100 µM (inactive) in the assay with DU-145; above 100 µM with HCT-15. The GI50 in the assay with HOP-92, with SF-539, with MDA-N, with UO-31, in the assay on MCF7 and in the assay on SK-MEL-28 was > 100 µM (inactive) in each case. Also, the GI50 in the assay on K562, in the assay on MDA-MB-435, in the assay with IGROV-1, in the assay with NCI-H522, with SNB-19 and with NCI/ADR-RES was > 100 µM (inactive) in each case. For the same molecule, the GI50 with T47D and in the assay on MOLT-4 was > 100 µM (inactive) throughout.

In the case of `CCCCCCCCCCCCCCCC(=O)OCC1OC(n2ccc(N)nc2=O)C(O)C1O` (stereo not given), the GI50 was > 85.3 µM (inactive) with RXF 393; > 100 µM (inactive) with SNB-75; > 100 µM (inactive) in the assay with KM12; 4.49 µM (inactive) in the assay with A498; 2.12 µM (inactive) in the assay with DU-145; above 42.2 µM in the assay with HCT-15. The GI50 in the assay on HOP-92 is > 28.8 µM (inactive); with SF-539 it was > 100 µM (inactive); in the assay on MDA-N it was > 100 µM (inactive); with UO-31, 1.67 µM (inactive); with MCF7, 1.06 µM (active); in the assay with SK-MEL-28 it was 33.5 µM (inactive). Besides, the GI50 in the assay with K562 is 8.24 µM (inactive); with MDA-MB-435, 6.75 µM (inactive); in the assay on IGROV-1 it was > 100 µM (inactive); in the assay on NCI-H522 it was 3.08 µM (inactive); in the assay with SNB-19 it was 16.9 µM (inactive); with NCI/ADR-RES it was > 48.3 µM (inactive). Moreover, the GI50 in the assay on T47D is > 100 µM (inactive); in the assay on MOLT-4, 0.0274 µM (active).

For the molecule `O=c1c2ccccc2n2nnc3ccc(NCCNCCO)c1c32`, the GI50 with RXF 393 is 1.87 µM (inactive); in the assay with SNB-75, 1.42 µM (inactive); with KM12 it was 1.66 µM (inactive); in the assay on A498, 1.89 µM (inactive); in the assay with DU-145, 0.112 µM (active); in the assay on HCT-15, 2.03 µM. The GI50 with HOP-92 was 1.88 µM (inactive); in the assay with SF-539, 3.78 µM (inactive); in the assay with MDA-N it was 1.69 µM (inactive); in the assay with UO-31, 0.863 µM (active); in the assay with MCF7 it was 3.24 µM (inactive); with SK-MEL-28 it was 2.87 µM (inactive). In addition, the GI50 in the assay on K562 was 1.61 µM (inactive); with MDA-MB-435 it was 1.34 µM (inactive); in the assay on IGROV-1 it was 2.47 µM (inactive); in the assay on NCI-H522, 1.82 µM (inactive); in the assay on SNB-19 it was 3.05 µM (inactive); in the assay with NCI/ADR-RES, 1.08 µM (active). For the same molecule, the GI50 in the assay with T47D is 5.82 µM (inactive); in the assay with MOLT-4 it was 0.361 µM (active).
